# Laboratory results from publication PMC5570900, “Exploiting a novel conformational switch to control innate immunity mediated by complement protein C3a” (Nature Communications, 2017).
# B1: hC5a: human complement protein C5a, ligand of C5aR (protein, UniProt P01031 678-751, looked up)
# C5a anaphylatoxin: TLQKKIEEIAAKYKHSVVKKCCYDGACVNNDETCEQRAARISLGPRCIKAFTECCVVASQLRANISHKDMQLGR
# modifications: C5a anaphylatoxin
# notes: human complement protein C5a, ligand of C5aR
# What was measured:
# [1] = target: T1, C3aR (Homo sapiens, UniProt Q16581); assay: Histamine secretion in human LAD2 mast cells (agonist mode); format: cell-based; design: Concentration-dependent histamine secretion in human LAD2 mast cells; endogenous in cells; host or cells: LAD2 human mast cells; details: for EC50: compound alone, 30 min, n ≥ 3, ± SEM
# T1 sequence (Q16581 1-482): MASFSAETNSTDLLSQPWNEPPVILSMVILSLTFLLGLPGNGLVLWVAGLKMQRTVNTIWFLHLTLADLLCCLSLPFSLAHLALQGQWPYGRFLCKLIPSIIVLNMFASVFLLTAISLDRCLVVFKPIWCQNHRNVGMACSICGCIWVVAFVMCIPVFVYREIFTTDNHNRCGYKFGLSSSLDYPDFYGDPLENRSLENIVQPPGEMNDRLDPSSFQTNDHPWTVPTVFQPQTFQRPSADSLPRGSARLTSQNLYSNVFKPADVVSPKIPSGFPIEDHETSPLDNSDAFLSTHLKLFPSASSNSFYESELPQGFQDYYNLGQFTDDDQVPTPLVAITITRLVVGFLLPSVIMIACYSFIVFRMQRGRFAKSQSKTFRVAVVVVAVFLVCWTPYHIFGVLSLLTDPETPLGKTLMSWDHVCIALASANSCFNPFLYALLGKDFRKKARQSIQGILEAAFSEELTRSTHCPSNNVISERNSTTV
# Description: LAD2 human mast cells (kindly provided by Dr Dean Metcalfe, National Institute of Allergy and Infectious Diseases, National Institute of Health) were cultured in StemPro®-34 Serum Free Media (Invitrogen, Australia) supplemented with StemPro®-34 nutrient, 100 U/mL penicillin, 100 μg/mL streptomycin, 2 mM GlutaMAX, and 100 ng/mL human stem cell factor (SCF). Cells were hemi-depleted weekly and were not allowed to grow beyond a density of 0.5 × 10^6/mL. This cell line was authenticated by expression of tryptase and histamine granules. For the histamine assay, 1 × 10^4 cells per well were seeded in StemPro®-34 SFM in 96-well plates for 30 min before any treatments. For agonist studies, the cells were treated with compounds prepared in media for 30 min. For antagonist studies, the cells were pre-treated with compounds prepared in SFM for 30 min before addition of C3aR agonists for another 30 min. Cells were centrifuged (500 g, 5 min, 4 °C) and cell-free supernatants were collected for measuring histamine. Histamine content was measured using the histamine EIA kit according to the manufacturer’s instructions (Abnova, Taiwan). The readings were recorded on a FLUOstar Optima (BMG LabTechnologies, Offenburg, Germany).
# [2] = target: T1, C3aR; assay: Intracellular Ca2+ release in human monocyte-derived macrophages (agonist mode); format: cell-based; design: Concentration-dependent Ca^2+ release in human monocyte-derived macrophages (HMDMs); endogenous in cells; host or cells: primary human monocyte-derived macrophages (HMDMs); details: HMDMs, n ≥ 3, ± SEM
# Description: (§1) HMDMs were isolated using Ficoll-paque density centrifugation (GE Healthcare Bio-Science, Uppsala, Sweden) from buffy coat (of anonymous human donors) provided by the Australian Red Cross Blood Service, Brisbane. CD14^+ monocytes were positively selected using CD14 MicroBeads (Miltenyi Biotech, Auburn, USA)[40], [41]. CD14^+ monocytes were differentiated to HMDMs using 100 ng/mL of recombinant human macrophage colony-stimulating factor (PeptroTech, Rocky Hill, USA) for 7 days in Iscove’s modified Dulbecco’s media supplemented with 10% fetal bovine serum, penicillin (100 U/mL), streptomycin (100 µg/mL) and L-glutamine (2 mM). HMDMs were supplemented after 5 days with fresh medium containing 10 ng/ml macrophage colony-stimulating factor and collected by gentle scraping on day 7.
# (§2) HMDMs were seeded to a 96-well clear-bottom black-wall assay plate at a density of 5 × 10^4 cells per well and allowed to adhere overnight. Prior to assay, cells were incubated with dye-loading buffer (Hank’s balance salt solution (HBSS) buffer, 4 μM Fluo-3 AM, 25 μl Pluronic acid F-127 and 1% fetal bovine serum) for 1 h at 37 °C. Cells were then washed once with assay buffer (HBSS supplemented with 2.5 mM probenecid and 20 mM HEPES, pH 7.4). Intracellular calcium release was monitored using a fluorescence imaging plate reader (excitation 495 nm, emission 520 nm). The percentage responses were plotted against logarithmic concentrations of each test compound[42].
# [3] = system: mast cells; assay: Mast cell stabilizer in BR103-induced rat paw edema; format: in vivo; details: 20 mg/kg s.c., 30 min prior, 0.5 h
# Description: Male Wistar rats (8–9 weeks) were injected with BR103 (3, 350 μg in 100 μL isotonic saline) into the plantar surface of both hind paw pads using a 30G needle. The inhibitor cromolyn (20 mg/kg in 5% DMSO) was injected subcutaneously 30 min before the agonist. The antagonist BR111 (6, 5–20 mg/kg in olive oil) was administered orally as a single dose 2 h before the agonist. Paw thickness and width were measured using digital calipers (WPI) at 0, 0.5, 2, 6 and 24 h after agonist BR103 administration. Hind paw size is expressed as % change in area from baseline after 0.5 h and then normalized against maximum swelling induced by agonist alone. Researchers were not blinded to treatments given. Rat paw tissue was collected and fixed in 4% paraformaldehyde (pH 7.4) for 2 h in the cold room (4 °C). The rat paw tissue was then transferred into falcon tubes containing 30% sucrose solution in PBS and left overnight in the cold room. The next day, rat paw tissue was embedded with the Optimal Cutting Temperature compound (OCT, Sakura Finetek, USA) and stored in the −80 °C freezer before being used for making cryo-sections for histological analysis. Frozen sections of 5 microns were prepared using a cryostat-microtome (Leica Biosystems, Germany) and stained using standard protocols on the same day. In normal histological staining, such as with alcian blue and safranin O and hematoxylin and eosin (H&E), samples were briefly washed with distilled water before staining. In alcian blue and safranin O, samples were stained with 0.1% alcian blue (Sigma-Aldrich, USA) and 0.5% safranin O (Sigma-Aldrich, USA) before being mounted in mounting medium. In H&E, samples were stained with hematoxylin (Sigma-Aldrich, USA) and 0.1% eosin (Sigma-Aldrich, USA) before being mounted in mounting medium. In immunohistochemistry, samples were briefly rinsed with PBS to remove OCT and incubated with blocking medium (PBS, 0.1% triton X-100, 10% horse serum) for 1 h at room temperature. Samples were incubated with primary antibody medium (PBS, 4% horse serum, 1:200 histamine or 1:200 of tryptase or 1:150 ED1 or 1:200 ED2 antibodies) overnight at 4 °C. The next day, samples were washed with PBS and were incubated with the secondary antibody medium (PBS, 4% horse serum, detection antibody 1:1000) for 1 h at room temperature. The samples were briefly rinsed, dried and counterstained with DAPI (Invitrogen, Australia). Primary antibodies for histamine (Sigma-Aldrich, USA, H2403, monoclonal rabbit anti-rat IgG, 1: 200), tryptase (Abcam, Australia, ab2378, monoclonal mouse anti-rat IgG, 1:200), ED1 (Serotec, UK, MCA341R, monoclonal mouse anti-rat, 1:150), ED2 (Serotec, UK, MCA3424R, monoclonal mouse anti-rat, 1:200) were purchased from commercial sources. Secondary detection antibody was purchased from (Invitrogen, Australia). ED1 & ED2 positive cells were quantified using FIJI/ImageJ 1.42q software, U.S. National Institutes of Health, Bethesda, MD, USA[44]. All microscope images were obtained using an Olympus BX-51 upright microscope with Olympus DP-71 12Mp colour camera, utilizing DP Capture and DP Manager software packages (Olympus, Tokyo, Japan). Researchers who performed histological analysis and scoring were blinded to the sample identity. Rat paw tissues were collected and immediately frozen with liquid nitrogen. Frozen rat paw tissues were cut into smaller pieces and mixed with 1 mL of TRIsure (Bioline, Australia) prior to homogenizing according to manufacturer’s instructions. […]
# [4] = target: T1, C3aR; assay: Inhibition of hC3a-induced Ca2+ release in human monocyte-derived macrophages; format: cell-based; design: Concentration-dependent Ca^2+ release in human monocyte-derived macrophages (HMDMs); endogenous in cells; host or cells: primary human monocyte-derived macrophages (HMDMs); details: HMDMs, hC3a 100 nM, n ≥ 3, ± SEM
# Description: as §1, §2
# [5] = target: T2, C5aR (Homo sapiens, UniProt P21730); assay: [125I]-hC5a competition binding on HMDMs; details: [125I]-hC5a 25 pM
# T2 construct: endogenous in cells; host or cells: primary human monocyte-derived macrophages (HMDMs)
# T2 sequence (P21730 1-350): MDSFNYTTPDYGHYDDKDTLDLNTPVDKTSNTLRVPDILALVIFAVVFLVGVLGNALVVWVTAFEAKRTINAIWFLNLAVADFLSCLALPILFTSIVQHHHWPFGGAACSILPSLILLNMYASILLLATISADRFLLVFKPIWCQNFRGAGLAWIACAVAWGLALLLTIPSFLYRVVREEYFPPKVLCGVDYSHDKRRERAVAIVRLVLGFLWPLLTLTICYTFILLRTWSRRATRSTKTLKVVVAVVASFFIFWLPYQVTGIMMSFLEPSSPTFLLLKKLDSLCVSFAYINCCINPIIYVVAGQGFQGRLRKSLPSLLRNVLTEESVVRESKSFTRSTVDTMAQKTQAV
# Description: Receptor binding was performed by ligand competition with labelled 80 pM [^125I]-C3a or 25 pM [^125I]-C5a (2200 Ci/mmol; Perkin Elmer, Torrance, CA, USA) on HMDMs (1.2 × 10^6 cells/ml). HMDMs were treated with [^125I]-C3a or [^125I]-C5a ± various concentrations of unlabelled C3a/C5a or experimental ligands were diluted with assay buffer (50 mM Tris, 3 mM MgCl2, 0.1 mM CaCl2, 0.5% (w/v) BSA, pH 7.4) for 60 min at room temperature. Unbound [^125I]-C3a or [^125I]-C5a was removed by filtration through glass microfibre filter GF/B (Whatman Iner. Ltd, England) and washed three times with cold buffer (50 mM Tris-HCl pH 7.4). Bound [^125I]-C3a or [^125I]-C5a were assessed by scintillation counting on Microbeta counter. Specific binding was defined as the difference between total binding and nonspecific binding as determined in the presence of 1 μM unlabelled C3a or C5a[4].
molecule,measurement,setting,value
N=C(N)NCCC[C@H](NC(=O)c1csc(C(c2ccccc2)c2ccccc2)n1)C(=O)O [Compound 1],"Type of agonist response, histamine release",[1],partial agonist
same,EC50,[1],110 ± 40 nM
same,EC50,[2],50 ± 20 nM
O=C(O)c1cc(=O)c2c(OCC(O)COc3cccc4oc(C(=O)O)cc(=O)c34)cccc2o1 [cromolyn],Effect on BR103-induced histamine expression in paw,[3],reduced histamine expression
same,Effect on BR103-induced infiltration of ED1+ macrophages,[3],reduced infiltration of inflammatory ED1^+ macrophages
same,"Effect on BR103-induced inflammatory gene expression (Il1β, Il6, Tnf, Ccl3, Mcp1)",[3],reduced expression of early response inflammatory genes
same,Effect on BR103-induced mast cell activation and degranulation,[3],attenuated BR103-induced increased activation
same,Effect on BR103-induced paw swelling,[3]; BR103 350 µg/paw i.pl.,"significant reduction in BR103-induced paw swelling at 0.5 h, almost back to baseline levels"
Cc1nc(C(c2ccccc2)c2ccccc2)sc1C(=O)NC(CCCNC(=N)N)C(=O)O (stereo not drawn) [Compound 5],IC50,[4],2000 ± 1100 nM
"Ac-cyclo-(2,6)-Phe-[Orn-Pro-dCha-Trp-Arg] [Compound 3D53, reference compound]",C5aR binding by competition with [125I]-hC5a,[5],C5aR-binding
N=C(N)NCCCC(NC(=O)c1cnc(C(c2ccccc2)c2ccccc2)s1)C(=O)O (stereo not drawn) [Compound 4],IC50,[4],600 ± 200 nM
Cc1sc(C(c2ccccc2)c2ccccc2)nc1C(=O)N[C@@H](CCCNC(=N)N)C(=O)O [Compound 2],"Type of agonist response, histamine release",[1],full agonist response
same,EC50,[1],300 ± 100 nM
same,EC50,[2],140 ± 60 nM
B1,C5aR binding by competition with [125I]-hC5a,[5],C5aR-binding
